The text below walks through data of paper PMC10675604, “Cetirizine and Levetiracetam as Inhibitors of Monoacylglycerol Lipase: Investigating Their Repurposing Potential as Novel Osteoarthritic Pain Therapies” (Pharmaceuticals, 2023).

Molecules are shown by their SMILES.

In the assay the target is T1, monoacylglycerol lipase (MAGL) (Homo sapiens, UniProt Q99685).
T1 construct: gene MGLL
T1 sequence (Q99685 1-303): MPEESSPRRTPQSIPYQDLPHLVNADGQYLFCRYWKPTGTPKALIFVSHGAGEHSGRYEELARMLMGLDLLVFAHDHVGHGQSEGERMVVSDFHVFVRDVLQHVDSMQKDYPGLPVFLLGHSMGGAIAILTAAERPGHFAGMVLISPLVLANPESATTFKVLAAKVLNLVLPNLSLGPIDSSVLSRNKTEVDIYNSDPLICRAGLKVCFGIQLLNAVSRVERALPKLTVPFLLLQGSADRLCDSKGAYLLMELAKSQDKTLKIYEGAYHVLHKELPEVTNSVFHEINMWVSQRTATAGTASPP
As to the kind of experiment: colorimetric MAGL inhibition assay (Cayman kit […], 4-nitrophenyl acetate hydrolysis, […] nm). It is filed as biochemical.

A word on the IC50: it is the concentration that gives 50% inhibition. `O=C(O)COCCN1CCN(C(c2ccccc2)c2ccc(Cl)cc2)CC1` (centres unmarked) [cetirizine] yielded an IC50 of 9.39 µM.
The figure for `CC[C@@H](C(N)=O)N1CCCC1=O` [levetiracetam] is 3.01 µM.
